This is an account of results in patent publication US20100034739A1, “Fungus-Specific Imaging Agents” (priority 2006, published 2010).

Assay [1] concerns acute pulmonary aspergillosis. Description: μ-PET imaging of mice with acute pulmonary aspergillosis and normal mice. It is filed as in vivo. The conditions noted are these: μ-PET at 30 and 90 minutes, i.v. approx. 200 μCi per mouse, not seen in normal mice. On the procedure:
FIG. 5A illustrates μ-PET images of mice injected with the ^68Ga-labeled peptide of FIG. 4. […] Arrows indicate accumulated imaging agent.
Mice weighing approximately 20 g each were injected intravenously with the imaging agent of FIG. 4 to provide radioisotope at a level of approximately 200 μCi per mouse. μ-PET imaging was performed at 30 and 90 minutes after injection. Control mice had no fungal infection, while infected mice had acute pulmonary aspergillosis. μ-PET images of normal and infected mice are shown in FIG. 5A. Arrows in FIG. 5A indicate the accumulated radiotracer.

The subject of a further assay is Aspergillus. Description: autoradiography and GMS histology of excised lung slices. The class given is in vivo, mice. Here is the method:
FIG. 5B illustrates autoradiography of the lungs of mice injected with the ^68Ga-labeled peptide of FIG. 4.
FIG. 6 illustrates histology and autoradiography of excised lung tissue from a mouse injected with Ga-68-labeled peptide of FIG. 4. The mouse had acute pulmonary aspergillosis.
Lungs were removed from the mice after the 90 minute imaging session and snap frozen, then cut into 20 μm slices. These slices were air-dried and exposed to a phosphors screen. The screen was exposed for 10 minutes.
To confirm that tissue labeled with the imaging agent was actually infected with Aspergillus, histology of lung tissue labeled by the imaging agent in an infected mouse was performed. The corresponding gamma scintogram and histology data are show in FIG. 6. […] Note the black-stained organisms correlated with distribution of radioactivity in autoradiography (lower left image) of excised lung tissue from a mouse injected with Ga-68-labeled peptide of FIG. 4.

The test system of assay [2] is acute pulmonary aspergillosis. The conditions noted are these: i.v. approx. 80 μCi per mouse. Here is the method: FIG. 2 illustrates gamma scintography of mice injected with the ^111In-labeled peptide of FIG. 1. […] Arrows indicate radiotracer in the lung.
Gamma scintography was performed at 30 and 120 minutes after injection. […] Experiments were performed 1 to 2 days after infection. The same mouse is shown for each test type at 30 and 120 minutes. Arrows in FIG. 2 indicate the accumulated radiotracer. Radiotracer accumulation in the lungs of the control mouse was not visible at 120 minutes after injection. Increased radiotracer could be seen as little as 5 minutes after injection.

Another assay deals with hyphae of Aspergillus. The settings on record: Lionakis et al. 2005; cited from earlier work.
The next assay concerns hyphae of Rhizopus. The conditions noted are these: Lionakis et al. 2005; cited from earlier work.

Positions of bridges follow the written chain, without caps; N, C: chain ends. No end group written: not given here. *: point of attachment. DOTA = O=C(O)CN1CCN(CC(=O)O)CCN(CC(=O)*)CCN(CC(=O)O)CC1

As for “^68Ga-DOTA-CGGRLGPFC ({DOTA}-CGGRLGPFC; not fully specified (bridges); also: 68Ga chelated by DOTA, cyclic, type of ring bond not given here) [imaging agent of FIG. 4]”, in assay [1], the “radiotracer accumulation in the lungs of infected mice” value was “can be clearly seen”. Also, the “radioactivity in lung slices of the infected mouse” value in the assay with Aspergillus (autoradiography of 20 μm slices, lungs removed after the 90 minute imaging session, infected mouse) is “Heterogeneous distribution of radioactivity”. The “radioactivity in lung slices of the normal mouse” value in the assay with Aspergillus (autoradiography of 20 μm slices, lungs removed after the 90 minute imaging session, normal mouse) is recorded as “Little radioactivity”. Further, the “relation of GMS-stained Aspergillus organisms to distribution of radioactivity in autoradiography” value in the assay on Aspergillus (excised lung tissue of an infected mouse, FIG. 6) is reported as “correlated”.

Regarding “^111In-DTPA-Benzyl-NH-Succinic Acid-CGGRLGPFC [imaging agent of FIG. 1]”, the “radiotracer accumulation in the lungs of the control mouse” value in assay [2] (control mouse without fungal infection, 120 minutes after injection) is listed as “not visible”. Further, in assay [2] (gamma scintography), the “time after injection at which increased radiotracer could be seen” value was 5 min.

Turning to c(CGGRLGPFC) (disulfide 1-9 (inferred)), the “binding in vitro to the hyphae of Aspergillus” value with hyphae of Aspergillus is recorded as “bind in vitro”. Moreover, in the assay on hyphae of Rhizopus, the “binding in vitro to the hyphae of Rhizopus” value is listed as “bind in vitro”.

c(CWGHSRDEC) (disulfide 1-9 (inferred)): in the assay on hyphae of Aspergillus, the “binding in vitro to the hyphae of Aspergillus” value is reported as “bind in vitro”. Also, the “binding in vitro to the hyphae of Rhizopus” value in the assay with hyphae of Rhizopus is given as “bind in vitro”.
